One test concerns the target ATM (Homo sapiens (Human), UniProt Q13315). Briefly: ATM in Cell Western Assay (pKAP1 in etoposide-treated MCF-7 cells). As to conditions: MCF-7 cells, etoposide 100 μM, 1 hr, pKAP1 readout. Format: cell-based. In a few lines:
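Cells received compounds in a 10-dose, 3-fold series from a 1 μM final top concentration, then 100 μM etoposide, for 1 hr at 37° C. They were then fixed with paraformaldehyde and permeabilized with 0.1% Triton X-100. After immunostaining, plates were scanned on an infrared imager.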

A further test has as its target DNA-PK (Homo sapiens (Human), UniProt P78527). Briefly: DNA-PK Enzyme-Linked Immunosorbent Assay (phosphorylation of GST-p53 (1-101) peptide). Format: biochemical. As to conditions: ELISA, ATP 20 μM. An outline of the steps: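 ELISA with plate-bound GST-p53 (1-101) phosphorylated by DNA-PK (0.1 μg/mL final) with 20 μM ATP for 1 h at 25 °C. Compounds tested over 10 3-fold doses from 100 nM top final. Phospho-p53 Ser15 detected by antibody, HRP and TMB, absorbance at 450 nm.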
On the technique in general: ELISA stands for enzyme-linked immunosorbent assay.

Each structure is given as a SMILES string. A value given as a limit tells only on which side of the number the result lay.

Sequence of ATM (Q13315 whole entry): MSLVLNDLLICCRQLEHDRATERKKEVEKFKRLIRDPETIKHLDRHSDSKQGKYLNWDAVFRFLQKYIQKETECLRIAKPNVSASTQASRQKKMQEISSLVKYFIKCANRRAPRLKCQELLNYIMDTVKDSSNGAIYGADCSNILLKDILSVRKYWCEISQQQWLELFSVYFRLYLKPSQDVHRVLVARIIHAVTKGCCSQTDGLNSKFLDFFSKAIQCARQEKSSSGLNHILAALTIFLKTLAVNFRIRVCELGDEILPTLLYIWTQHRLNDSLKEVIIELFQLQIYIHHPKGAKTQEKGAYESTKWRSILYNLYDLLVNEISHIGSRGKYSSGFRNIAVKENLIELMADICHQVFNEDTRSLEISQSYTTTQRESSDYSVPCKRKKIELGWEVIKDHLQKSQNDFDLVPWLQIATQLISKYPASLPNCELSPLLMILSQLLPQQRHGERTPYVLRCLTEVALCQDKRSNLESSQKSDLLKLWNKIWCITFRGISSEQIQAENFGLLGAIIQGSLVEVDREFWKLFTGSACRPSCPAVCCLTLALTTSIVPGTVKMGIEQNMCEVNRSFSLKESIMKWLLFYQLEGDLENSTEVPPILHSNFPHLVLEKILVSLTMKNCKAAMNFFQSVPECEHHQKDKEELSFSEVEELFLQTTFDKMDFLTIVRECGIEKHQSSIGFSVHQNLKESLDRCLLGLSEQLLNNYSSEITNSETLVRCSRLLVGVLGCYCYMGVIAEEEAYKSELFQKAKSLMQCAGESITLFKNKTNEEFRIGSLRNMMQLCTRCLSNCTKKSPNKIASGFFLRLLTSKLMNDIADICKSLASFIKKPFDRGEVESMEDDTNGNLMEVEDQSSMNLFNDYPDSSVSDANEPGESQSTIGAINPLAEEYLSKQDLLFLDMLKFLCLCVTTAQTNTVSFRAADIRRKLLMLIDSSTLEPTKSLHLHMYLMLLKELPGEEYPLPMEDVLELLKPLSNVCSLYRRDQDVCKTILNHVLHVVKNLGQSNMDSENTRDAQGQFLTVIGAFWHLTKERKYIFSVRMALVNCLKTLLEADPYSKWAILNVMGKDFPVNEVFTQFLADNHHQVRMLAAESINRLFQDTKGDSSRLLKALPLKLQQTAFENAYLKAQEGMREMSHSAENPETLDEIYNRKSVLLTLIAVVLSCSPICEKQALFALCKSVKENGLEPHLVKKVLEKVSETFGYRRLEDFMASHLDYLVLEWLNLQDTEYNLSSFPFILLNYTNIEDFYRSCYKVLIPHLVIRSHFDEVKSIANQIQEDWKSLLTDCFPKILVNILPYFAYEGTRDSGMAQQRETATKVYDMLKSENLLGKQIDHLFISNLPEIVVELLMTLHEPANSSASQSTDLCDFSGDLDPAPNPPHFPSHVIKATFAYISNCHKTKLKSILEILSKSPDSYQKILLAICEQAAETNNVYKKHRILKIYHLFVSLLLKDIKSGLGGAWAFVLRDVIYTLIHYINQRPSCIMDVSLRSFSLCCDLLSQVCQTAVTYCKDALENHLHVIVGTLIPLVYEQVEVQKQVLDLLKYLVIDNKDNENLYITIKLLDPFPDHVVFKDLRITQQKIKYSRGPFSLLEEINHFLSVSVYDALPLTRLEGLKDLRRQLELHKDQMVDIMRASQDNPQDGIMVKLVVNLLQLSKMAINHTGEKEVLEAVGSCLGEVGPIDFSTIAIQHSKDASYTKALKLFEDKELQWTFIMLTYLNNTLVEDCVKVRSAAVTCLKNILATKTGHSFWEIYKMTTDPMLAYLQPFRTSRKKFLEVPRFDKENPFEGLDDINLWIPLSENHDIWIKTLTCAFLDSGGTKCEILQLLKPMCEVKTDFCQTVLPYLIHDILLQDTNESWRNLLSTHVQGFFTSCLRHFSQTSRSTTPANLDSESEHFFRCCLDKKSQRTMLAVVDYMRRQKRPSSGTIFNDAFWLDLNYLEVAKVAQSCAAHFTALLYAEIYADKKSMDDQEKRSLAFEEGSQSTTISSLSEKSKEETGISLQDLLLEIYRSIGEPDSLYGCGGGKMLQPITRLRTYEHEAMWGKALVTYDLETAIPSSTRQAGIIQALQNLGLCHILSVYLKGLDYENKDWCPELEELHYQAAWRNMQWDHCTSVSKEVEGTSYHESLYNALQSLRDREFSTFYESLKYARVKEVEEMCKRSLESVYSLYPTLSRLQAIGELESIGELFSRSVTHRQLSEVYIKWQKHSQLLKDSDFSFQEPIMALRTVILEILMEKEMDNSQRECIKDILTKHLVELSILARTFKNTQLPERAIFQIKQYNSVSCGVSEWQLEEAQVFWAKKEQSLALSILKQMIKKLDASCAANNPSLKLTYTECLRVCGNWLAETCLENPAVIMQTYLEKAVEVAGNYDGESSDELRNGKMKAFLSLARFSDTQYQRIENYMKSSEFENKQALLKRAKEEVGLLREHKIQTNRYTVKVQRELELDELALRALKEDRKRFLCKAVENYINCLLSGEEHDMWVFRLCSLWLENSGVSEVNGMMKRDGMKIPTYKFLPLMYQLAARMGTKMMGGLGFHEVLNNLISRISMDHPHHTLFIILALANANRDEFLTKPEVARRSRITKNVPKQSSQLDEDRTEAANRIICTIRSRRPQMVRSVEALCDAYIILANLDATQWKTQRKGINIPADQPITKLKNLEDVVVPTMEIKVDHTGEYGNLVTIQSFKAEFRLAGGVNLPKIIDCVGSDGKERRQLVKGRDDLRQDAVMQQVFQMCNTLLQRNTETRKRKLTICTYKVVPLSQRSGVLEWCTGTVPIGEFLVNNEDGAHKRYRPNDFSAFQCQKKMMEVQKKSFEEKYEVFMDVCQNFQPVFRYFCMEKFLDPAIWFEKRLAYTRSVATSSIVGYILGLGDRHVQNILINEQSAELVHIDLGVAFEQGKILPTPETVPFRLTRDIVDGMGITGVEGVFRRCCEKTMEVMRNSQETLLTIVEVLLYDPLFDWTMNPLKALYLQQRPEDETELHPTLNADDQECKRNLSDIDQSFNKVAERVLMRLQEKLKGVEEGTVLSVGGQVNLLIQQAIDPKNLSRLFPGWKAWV

Take `CN1C(=O)C2(CCC2)c2c1cnc1ccc(-c3cnc(OCCCN4CCCC4)c(NS(=O)(=O)N(C)C)c3)cc21` [Example 242, 8′-(5-[(Dimethylsulfamoyl)amino]-6-[3-(pyrrolidin-1-yl)propoxy]pyridin-3-yl)-3′-methyl-2′,3′-dihydrospiro [cyclobutane-1,1′-pyrrolo[2,3-c]quinoline]-2′-one]: the IC50 (usually the point on the concentration scale where inhibition reaches its midpoint) against ATM lay in the range of 0.5 to 1 nM; against DNA-PK, 1 to 100 nM.
On the same counts, the results for `CN1CCN(c2ncc(-c3ccc4ncc5c(c4c3)C3(CCC3)C(=O)N5C)cc2NS(=O)(=O)c2ccccc2)CC1` [Example 243, N-(5-(3′-Methyl-2′-oxo-2′,3′-dihydrospiro[cyclobutane-1,1′-pyrrolo[2,3-c]quinolin]-8′-yl)-2-(4-methylpiperazin-l-yl)Pyridin-3-yl)benzenesulfonamide] are 1 to 100 nM and 1 to 100 nM.
Consider `CN(C)CCCOc1ncc(-c2ccc3ncc4c(c3c2)C2(CCC2)C(=O)N4C)cc1NS(=O)(=O)N1CCCC1` [Example 244, N-(2-(3-(Dimethylamino)propoxy)-5-(3′-methyl-2′-oxo-2′,3′-dihydrospiro [cyclobutane-1,1′-pyrrolo[2,3-c]quinolin]-8′-yl)pyridin-3-yl)pyrrolidine-1-sulfonamide], for which the IC50 against ATM and at DNA-PK was 1 to 100 nM each time.
`CCc1ncc(S(=O)(=O)Nc2cc(-c3ccc4ncc5c(c4c3)C3(CCC3)C(=O)N5C)cnc2OCCCN(C)C)s1` [Example 245, N-(2-(3-(Dimethylamino)propoxy)-5-(3′-methyl-2′-oxo-2′,3′-dihydrospiro [cyclobutane-1,1′-pyrrolo [2,3-c]quinolin]-8′-yl)pyridin-3-yl)-2-ethylthiazole-5-sulfonamide]: the IC50 is 1 to 100 nM against ATM and below 0.5 nM at DNA-PK.
On the same counts, the results for `Cc1cc(S(=O)(=O)Nc2cc(-c3ccc4ncc5c(c4c3)C3(CCC3)C(=O)N5C)cnc2N2CCN(C)CC2)sn1` [Example 246, 3-Methyl-N-(5-(3′-methyl-2′-oxo-2′,3′-dihydrospiro[cyclobutane-1,1′-pyrrolo[2,3-c]quinolin]-8′-yl)-2-(4-methylpiperazin-1-yl)pyridin-3-yl)isothiazole-5-sulfonamide] are 1 to 100 nM and below 0.5 nM.
Turning to `CN(C)CCCOc1ncc(-c2ccc3ncc4c(c3c2)C2(CCC2)C(=O)N4C)cc1NS(=O)(=O)C(F)F` [Example 247, N-(2-(3-(Dimethylamino)propoxy)-5-(3′-methyl-2′-oxo-2′,3′-dihydrospiro [cyclobutane-1,1′-pyrrolo[2,3-c]quinolin]-8′-yl)pyridin-3-yl)-1,1′-difluoromethane-sulfonamide], the results for the IC50 at ATM and against DNA-PK were 1 to 100 nM and below 0.5 nM, respectively.
On the same counts, the results for `CCNCCOc1ncc(-c2ccc3ncc4c(c3c2)C2(CCC2)C(=O)N4C)cc1NS(C)(=O)=O` [Example 248, N-(2-(2-(Ethylamino)ethoxy)-5-(3′-methyl-2′-oxo-2′,3′-dihydrospiro[cyclobutane-1,1′-pyrrolo[2,3-c]quinolin]-8′-yl)pyridin-3-yl) methanesulfonamide] are 1 to 100 nM and below 0.5 nM.
On the same counts, the results for `CNCCOc1ncc(-c2ccc3ncc4c(c3c2)C2(CCC2)C(=O)N4C)cc1NS(C)(=O)=O` [Example 249, N-(5-(3′-Methyl-2′-oxo-2′,3′-dihydrospiro[cyclobutane-1,1′-pyrrolo[2,3-c]quinolin]-8′-yl)-2-(2-(methylamino)ethoxy)pyridin-3-yl) methanesulfonamide] are 1 to 100 nM and below 0.5 nM.
In the case of `CNCCOc1ncc(-c2ccc3ncc4c(c3c2)C2(CCC2)C(=O)N4C)cc1NS(=O)(=O)c1ccccc1` [Example 250, N-(5-(3′-Methyl-2′-oxo-2′,3′-dihydrospiro[cyclobutane-1,1′-pyrrolo[2,3-c]quinolin]-8′-yl)-2-(2-(methylamino)ethoxy)pyridin-3-yl) benzenesulfonamide], the IC50 was 1 to 100 nM against ATM and below 0.5 nM on DNA-PK.
On the same counts, the results for `CN1C(=O)C2(CCC2)c2c1cnc1ccc(-c3cnc(N4CCC(N5CCCC(F)(F)C5)CC4)c(NS(C)(=O)=O)c3)cc21` [Example 251, N-(2-(3,3-Difluoro-[1,4′-bipiperidin]-1′-yl)-5-(3′-methyl-2′-oxo-2′,3′-dihydrospiro[cyclobutane-1,1′-pyrrolo[2,3-c]quinolin]-8′-yl)pyridin-3-yl)methanesulfonamide] are 1 to 100 nM and 0.5 to 1 nM.
Regarding `CN1C(=O)C2(CCC2)c2c1cnc1ccc(-c3cnc(OCCCN4CCCCC4)c(NS(=O)(=O)c4cccnc4)c3)cc21` [Example 252, N-(5-(3′-Methyl-2′-oxo-2′,3′-dihydrospiro [cyclobutane-1,1′-pyrrolo [2,3-c]quinolin]-8′-yl)-2-(3-(piperidin-1-yl)propoxy)pyridin-3-yl)pyridine-3-sulfonamide], the IC50 on ATM and against DNA-PK was 1 to 100 nM throughout.
Regarding `CN(C)CCCOc1ncc(-c2ccc3ncc4c(c3c2)C2(CCC2)C(=O)N4C)cc1NS(=O)(=O)C1CCC1` [Example 253, N-(2-(3-(Dimethylamino)propoxy)-5-(3′-methyl-2′-oxo-2′,3′-dihydrospiro [cyclobutane-1,1′-pyrrolo[2,3-c]quinolin]-8′-yl)pyridin-3-yl) cyclobutanesulfonamide], the IC50 against ATM and at DNA-PK was 1 to 100 nM in each case.
Regarding `CC(C)NCCOc1ncc(-c2ccc3ncc4c(c3c2)C2(CCCC2)C2=NCCN24)cc1NS(C)(=O)=O` [Example 257, N-(5-(8′,9′-Dihydrospiro[cyclopentane-1,11′-imidazo[1′,2′:1,5]pyrrolo[2.3-c]quinolin]-2′-yl)-2-(2-(isopropylamino)ethoxy)pyridin-3-yl)methanesulfonamide], the IC50 at ATM is 1 to 100 nM; against DNA-PK it was below 0.5 nM.
On the same counts, the results for `CN(C)CCCOc1ncc(-c2ccc3ncc4c(c3c2)C2(CC(F)C2)C(=O)N4C)cc1NS(C)(=O)=O` (centres unmarked) [Example 262, N-(2-(3-(Dimethylamino)propoxy)-5-(3-fluoro-3′-methyl-2′-oxo-2′,3′-dihydrospiro[cyclobutane-1,1′-pyrrolo[2,3-c]quinolin]-8′-yl)pyridin-3-yl)methanesulfonamide] are 1 to 100 nM and 1 to 100 nM.
The like results for `CN(C)CCCOc1ncc(-c2ccc3ncc4c(c3c2)C2(CCC2)C(=O)N4C)cc1NS(=O)(=O)CCN(C)C` [Example 264, 2-(Dimethylamino)-N-(2-(3-(dimethylamino)propoxy)-5-(3′-methyl-2′-oxo-2′,3′-dihydrospiro[cyclobutane-1,1′-pyrrolo[2,3-c]quinolin]-8′-yl)pyridin-3-yl)ethane-1-sulfonamide] were, in that order, 0.5 to 1 nM and 1 to 100 nM.
For `COCCS(=O)(=O)Nc1cc(-c2ccc3ncc4c(c3c2)C2(CCC2)C(=O)N4C)cnc1OCCCN(C)C` [Example 266, N-(2-(3-(Dimethylamino)propoxy)-5-(3′-methyl-2′-oxo-2′,3′-dihydrospiro [cyclobutane-1,1′-pyrrolo[2,3-c]quinolin]-8′-yl)pyridin-3-yl)-2-methoxyethane-1-sulfonamide], the IC50 at ATM and at DNA-PK was 1 to 100 nM throughout.

The values above are taken from patent US12187742B2 (XRAD Therapeutics, Inc., priority 2018, dated 2025).
